What was measured:
Type in all cases: physicochemical
[1] = Powder X-ray diffraction measurement at each relative humidity (influence of humidity on the crystal form); settings: 35.0 °C
Method: (§1) The powder X-ray diffraction measurement for Example 3-12 was performed under the following conditions to evaluate the crystal form at each relative humidity. The measurement was carried out at the time points between dropping the relative humidity to 0% and raising it to 90%: 0% (FIG. 21(A)), 10% (FIG. 21(B)), 20% (FIG. 21(C)), 50% (FIG. 21(D)), and 90% (FIG. 21(E)). • Measurement apparatus: SmartLab System, D/Tex Ultra detector, humidity generator HUM-SL (manufactured by Rigaku Corporation) • Radiation source: CuKα1 • Tube voltage: 45 kV • Tube current: 200 mA • Scanning range: 4 to 35° • Scanning speed: 5°/min • Sampling width: 0.02° • Humidity change conditions:
as §1, with “3-13” for “3-12”, “24(A)), 30%” for “21(A)), 10%”, “24(B)),” for “21(B)), 20% (FIG. 21(C)),”, “24(C)),” for “21(D)),”, “24(D)).” for “21(E)).”, “conditions: […]” for “conditions:”

[2] = Thermogravimetry-differential thermal analysis (TG-DTA); settings: 10° C./min, nitrogen
Method: The thermogravimetry-differential thermal analysis (TG-DTA) for Example 3-8, Example 3-9, Example 3-12, Example 3-13, Example 3-17, and Example 3-19 was performed under the following conditions. • Measurement apparatus: STA7200RV+AS-3T (manufactured by Hitachi High-Tech Science Corporation) • Measurement range: 30 to 350° C. • Heating rate: 10° C./min • Atmosphere: nitrogen • Measurement: The sample was weighed in an open aluminum pan and covered with a mesh to perform the measurement.

[3] = Slurry conversion experiment (form A, form B and form K crystals mixed and shaken in mixed solvent); settings: 25° C., 2000 rpm
Method: The powder X-ray diffraction measurement for Example 3-2, Example 3-3, Example 3-4, Example 3-5, Example 3-6, Example 3-7, Example 3-9, Example 3-16, Example 3-17, Example 3-22, Example 5-1, Example 5-2, Example 5-3, Example 5-4, Example 5-5, Example 5-6, Example 5-7, Example 5-8, and Example 5-9 was performed under the following conditions. • Measurement apparatus: D8 Discover, 2D VANTEC-500 solid state detector (manufactured by Bruker) • Radiation source: CuKα • Tube voltage and tube current: 50 kV and 1000 μA • Measurement range: 5 to 31° • Exposure time: 40 seconds
The form A crystal (3.0 mg), form B crystal (3.0 mg), and form K crystal (3.0 mg) of compound 1 were mixed, and a mixed solvent of acetone-heptane (1:1 (v/v), 0.030 mL) and one grain of glass bead were added. Using a shaker (BioShaker M⋅BR-022UP manufactured by TAITEC CORPORATION), the mixture was shaken at 25° C., 2000 rpm for 9 days, and then filtered and dried under reduced pressure to obtain a crystal (form B) of compound 1. […] It was confirmed that the form B crystal is a stable form in the mixed solvent of acetone-heptane (1:1 (v/v)).
The form A crystal (3.1 mg), form B crystal (3.1 mg), and form K crystal (3.1 mg) of compound 1 were mixed, and a mixed solvent of 2-propanol-heptane (1:1 (v/v), 0.030 mL) and one grain of glass bead were added. Using a shaker (BioShaker M⋅BR-022UP manufactured by TAITEC CORPORATION), the mixture was shaken at 25° C., 2000 rpm for 9 days, and then filtered and dried under reduced pressure to obtain a crystal (form B) of compound 1. […] It was confirmed that the form B crystal is a stable form in the mixed solvent of 2-propanol-heptane (1:1 (v/v)).
The form A crystal (3.0 mg), form B crystal (3.0 mg), and form K crystal (3.1 mg) of compound 1 were mixed, and a mixed solvent of ethanol-heptane (1:1 (v/v), 0.030 mL) and one grain of glass bead were added. Using a shaker (BioShaker M⋅BR-022UP manufactured by TAITEC CORPORATION), the mixture was shaken at 25° C., 2000 rpm for 9 days, and then filtered and dried under reduced pressure to obtain a crystal (form B) of compound 1. […] It was confirmed that the form B crystal is a stable form in the mixed solvent of ethanol-heptane (1:1 (v/v)).
The form A crystal (3.0 mg), form B crystal (3.0 mg), and form K crystal (3.0 mg) of compound 1 were mixed, and a mixed solvent of acetone-water (1:1 (v/v), 0.030 mL) and one grain of glass bead were added. Using a shaker (BioShaker M⋅BR-022UP manufactured by TAITEC CORPORATION), the mixture was shaken at 25° C., 2000 rpm for 9 days, and then filtered and dried under reduced pressure to obtain a crystal (form B) of compound 1. […] It was confirmed that the form B crystal is a stable form in the mixed solvent of acetone-water (1:1 (v/v)).
The form A crystal (3.0 mg), form B crystal (3.1 mg), and form K crystal (3.1 mg) of compound 1 were mixed, and a mixed solvent of 2-propanol-water (1:1 (v/v), 0.030 mL) and one grain of glass bead were added. Using a shaker (BioShaker M⋅BR-022UP manufactured by TAITEC CORPORATION), the mixture was shaken at 25° C., 2000 rpm for 9 days, and then filtered and dried under reduced pressure to obtain a crystal (form B) of compound 1. […] It was confirmed that the form B crystal is a stable form in the mixed solvent of 2-propanol-water (1:1 (v/v)).
The form A crystal (3.1 mg), form B crystal (3.0 mg), and form K crystal (3.1 mg) of compound 1 were mixed, and a mixed solvent of ethanol-water (1:1 (v/v), 0.030 mL) and one grain of glass bead were added. Using a shaker (BioShaker M⋅BR-022UP manufactured by TAITEC CORPORATION), the mixture was shaken at 25° C., 2000 rpm for 9 days, and then filtered and dried under reduced pressure to obtain a crystal (form B) of compound 1. […] It was confirmed that the form B crystal is a stable form in the mixed solvent of ethanol-water (1:1 (v/v)). […]

Row | SMILES | crystal form at a relative humidity of 0% [1] | weight reduction ([2]; crystal of Example 3-8 (from acetone/heptane)) | weight reduction ([2]; crystal of Example 3-9 (from 2-propanol/heptane)) | stable form in slurry conversion ([3]; 2-propanol-heptane (1:1 (v/v)), 9 days) | stable form in slurry conversion ([3]; 2-propanol-water (1:1 (v/v)), 9 days) | stable form in slurry conversion ([3]; 2-propanol-water (1:4 (v/v)), 9 days) | stable form in slurry conversion ([3]; acetone-heptane (1:1 (v/v)), 9 days) | stable form in slurry conversion ([3]; acetone-water (1:1 (v/v)), 9 days) | stable form in slurry conversion ([3]; acetone-water (1:4 (v/v)), 9 days) | stable form in slurry conversion ([3]; ethanol-heptane (1:1 (v/v)), 9 days) | stable form in slurry conversion ([3]; ethanol-water (1:1 (v/v)), 9 days) | stable form in slurry conversion ([3]; ethanol-water (1:4 (v/v)), 7 days)
1 | CCC[C@H]1C(=O)N[C@@H]([C@@H](C)CC)C(=O)N2CCC[C@H]2C(=O)N(C)[C@H]2C/C=C\CCN(C2=O)[C@@H](Cc2ccc(C(F)(F)F)cc2)C(=O)N(C)CC(=O)N[C@@H](CCc2ccc(C(F)(F)F)c(OC)c2)C(=O)N2C[C@H](OCC)C[C@H]2C(=O)N(C)C2(CCC2)C(=O)N(C)[C@@H](C2CCCC2)C(=O)N(C)[C@H](C(=O)N(C)C)CC(=O)N1C [form A] | transformed into the form J | 3 wt % | 2 wt % |  |  |  |  |  |  |  |  | 
2 | CCC[C@H]1C(=O)N[C@@H]([C@@H](C)CC)C(=O)N2CCC[C@H]2C(=O)N(C)[C@H]2C/C=C\CCN(C2=O)[C@@H](Cc2ccc(C(F)(F)F)cc2)C(=O)N(C)CC(=O)N[C@@H](CCc2ccc(C(F)(F)F)c(OC)c2)C(=O)N2C[C@H](OCC)C[C@H]2C(=O)N(C)C2(CCC2)C(=O)N(C)[C@@H](C2CCCC2)C(=O)N(C)[C@H](C(=O)N(C)C)CC(=O)N1C [form B] | transformed into the form Y |  |  | a stable form | a stable form | a stable form | a stable form | a stable form | a stable form | a stable form | a stable form | a stable form

Source: US20260337231A1, “METHOD FOR PRODUCING CYCLIC PEPTIDE COMPOUND” (CHUGAI SEIYAKU KABUSHIKI KAISHA, priority 2023, published 2026)
